Legend:
PKG = molecular target: T1, PKG (Homo sapiens, UniProt Q13976); settings: earlier observation, Airhart et al. 2003; cited from earlier work
T1 construct: endogenous in cells; host or cells: HEK293 stably over-expressing FLAG-NPRA (HEK-NPRA)
T1 sequence (Q13976 1-671): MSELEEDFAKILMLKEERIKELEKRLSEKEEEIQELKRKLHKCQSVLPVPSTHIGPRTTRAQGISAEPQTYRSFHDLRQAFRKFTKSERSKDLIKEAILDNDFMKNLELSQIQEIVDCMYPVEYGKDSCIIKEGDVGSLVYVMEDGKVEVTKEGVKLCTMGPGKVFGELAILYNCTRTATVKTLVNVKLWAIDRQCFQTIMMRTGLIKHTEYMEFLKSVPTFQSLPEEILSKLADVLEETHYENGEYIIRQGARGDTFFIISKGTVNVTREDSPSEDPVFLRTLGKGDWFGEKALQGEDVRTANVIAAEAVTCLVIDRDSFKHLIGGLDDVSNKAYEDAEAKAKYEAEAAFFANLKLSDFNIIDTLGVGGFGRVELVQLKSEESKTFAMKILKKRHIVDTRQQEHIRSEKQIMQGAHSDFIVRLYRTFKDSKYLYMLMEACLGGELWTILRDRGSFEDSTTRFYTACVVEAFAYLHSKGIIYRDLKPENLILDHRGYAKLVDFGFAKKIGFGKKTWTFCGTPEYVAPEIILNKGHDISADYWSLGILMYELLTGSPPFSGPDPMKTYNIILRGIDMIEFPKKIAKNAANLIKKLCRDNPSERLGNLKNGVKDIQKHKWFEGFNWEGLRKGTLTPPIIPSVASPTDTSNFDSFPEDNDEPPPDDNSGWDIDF

NPRA [1] = assay: [35S]ATPγS NPRA phosphorylation in HEK293 / HEK-NPRA cells; type: cell-based; settings: HEK293 that overexpress NPRA
Protocol: To ensure that the 137-kD phosphorylation band observed in the CFs after ANP treatment was, in fact, NPRA, HEK293 or HEK-NPRA were treated with ANP with or without KT5823 as described above. The lysates were divided into two aliquots. One aliquot was incubated with [^35S] ATPγS and then separated by SDS-PAGE, blotted to Immobilon membranes, and visualized by autoradiography. The other aliquot was separated similarly and then probed with anti-NPRA antisera, stripped and re-probed with anti-α-tubulin to assure equal protein loading. Robust phosphorylation of a 137-kD protein occurred in the NPRA-expressing cells, but not in control cells (FIG. 6B). Since both KT5823 and sNRF^(806-1061) inhibit cytosolic-to-plasma membrane translocation of PKG, PKG-NPRA association appears to be required for PKG-induced NPRA phosphorylation.

NPRA [2] = assay: [35S]ATPγS incorporation into NPRA (receptor phosphorylation) in CFs; type: cell-based, rat; settings: ANP 5 minutes, KT5823 1 μM or expressed fragment
Protocol: To identify receptor phosphorylation by PKG, ^[35S]ATPγS was employed as a substrate. [^35S] incorporation into NPRA was analyzed according to the method previously described (Joubert et al., Biochem. 40:11096-105, 2001). Briefly, the treated CFs were scraped into 100 μl ice-cold incubation buffer (25 mM HEPES, pH 7.4, 50 mM NaCl, 5 mM MgCl2, 0.2 μM okadaic acid, 1 mM Na3VO4, 10 mM NaH2PO4, 10 mM NaF, and protease inhibitors (complete mini-tablet, Roche) and lysed by repeated passage through a 22-gauge needle. Lysates were added to incubation buffer containing 1 μCi [^35S]ATPγS (specific activity >1000 Ci/mmol), final volume of 200 μl, incubated at 37° C. for 30 minutes. Proteins were analyzed by SDS-PAGE (7.5%) and subsequent autoradiography.

COC(=O)[C@@]1(OC)C[C@H]2O[C@]1(C)n1c3ccccc3c3c4c(c5c6ccccc6n2c5c31)C(=O)N(C)C4 [KT5823]
PKG translocation (PKG): inhibits PKG translocation | NP-dependent phosphorylation of NPRA (NPRA [1]): inhibited | ANP-induced NPRA phosphorylation (NPRA [2]): reduced ANP-induced NPRA phosphorylation to control levels

Reference: patent publication US7943296B2, “Methods of screening using a natriuretic peptide receptor” (Oregon Health & Science University, priority 2005, dated 2011)
